The source of these data is patent US8445008B2, “Reduction of infection associated with medical device” (Medtronic, Inc., priority 2008, dated 2013).

Values after ≈ are worked out from the molar mass of the structure shown.

One series relates to S. aureus. As to the kind of experiment: Minimum inhibitory concentration against the S. aureus strain used in the studies. In kind it is cell-based. The note with it: Staphylococcus aureus; strain of S. aureus used in the studies.
A short description of series [1]: Solubility in extraction/HPLC solvents. In kind it is physicochemical.

In the case of `CO[C@H]1/C=C/O[C@@]2(C)Oc3c(C)c(O)c4c(O)c(c(/C=N/N5CCN(C)CC5)c(O)c4c3C2=O)NC(=O)/C(C)=C\C=C\[C@H](C)[C@H](O)[C@@H](C)[C@@H](O)[C@@H](C)[C@H](OC(C)=O)[C@@H]1C` [rifampin], the MIC against S. aureus came out at 0.06 µg/mL (≈ 0.0729 µM). In addition, in series [1], the “solubility in methanol and THF/ethanol 4:1” value is “good solubility”.
